pIC50: −log10 of the molar value.
Tests used:
[1] = test system: 5-LO; assay: Liberation of LTB4 induced by zymosan within an air pouch in male rats (test g); format: in vivo; conditions: 3 h, oral, rat air pouch
Method: g) An in vivo system involving measuring the effects of a test compound administered orally against the liberation of LTB4 induced by zymosan within an air pouch generated within the subcutaneous tissue of the back of male rats. The rats are anaesthetised and air pouches are formed by the injection of sterile air (20 ml). A further injection of air (10 ml) is similarly given after 3 days). At 6 days after the initial air injection the test compound is administered (usually orally as the supsension produced when a solution of the test compound in dimethylsulphoxide is added to hydroxypropylmethylcellulose), followed by the intrapouch injection of zymosan (1 ml of a 1% suspension in physiological saline). After 3 hours the rats are killed, the air pouches are lavaged with physiological saline, and the specific radioimmunoassay described above is used to assay LTB4 in washings. This test provides an indication of inhibitory effects against 5-LO in an inflammatory milieu.

[2] = test system: 5-LO; assay: In vitro heparinised human blood assay, A23187 challenge, LTB4 radioimmunoassay (test b); format: cell-based
Method: b) An in vitro assay system involving incubating a test compound with heparinised human blood, prior to challenge with the calcium ionophore A23187 and then indirectly measuring the inhibitory effects on 5-LO by assaying the amount of LTB4 using the specific radioimmunoassay described by Carey and Forder (F. Carey and R. A. Forder, Brit. J. Pharmacol. 1985, 84, 34P) which involves the use of a protein-LTB4 conjugate produced using the procedure of Young et alia (Prostaglandins, 1983, 26(4), 605-613). The effects of a test compound on the enzyme cyclooxygenase (which is involved in the alternative metabolic pathway for arachidonic acid and gives rise to prostaglandins, thromboxanes and related metabolites) may be measured at the same time using the specific radioimmunoassay for thromboxane B2 (TxB2) described by Carey and Forder (see above). This test provides an indication of the effects of a test compound against 5-LO and also cyclooxygenase in the presence of blood cells and proteins. It permits the selectivity of the inhibitory effect on 5-LO or cyclooxygenase to be assessed.

[3] = test system: 5-LO; assay: Ex vivo assay: administration of test compound, blood collection, A23187 challenge, LTB4 radioimmunoassay (test c); format: in vivo; conditions: oral

For `COC1(c2cccc(Sc3ccc4c(ccc(=O)n4C)c3)c2)CCOCC1` [Example 1, 4-[3-(1,2-dihydro-1-methyl-2-oxoquinolin-6-ylthio)phenyl]-4-methoxytetrahydropyran], which ED50 [1] is on record?
Its ED50 is 1 mg/kg.

What about the pIC50 [2] of the same compound?
Its pIC50 is greater than 7.40.

What about the ED50 [3] of the same compound?
Its ED50 is 1.5 mg/kg.

— patent US5221677A, “5-lipoxygenase inhibitors quinoline or isoquinoline derivatives” (Imperial Chemical Industries PLC, priority 1989, dated 1993)
